US20100029654A1, “CARDIOVASCULAR COMPOSITIONS AND USE OF THE SAME FOR THE TREATMENT OF ALZHEIMER'S DISEASE” (MOUNT SINAI SCHOOL OF MEDICINE, priority 2006, published 2010)
“Also recorded” adds a separate entry of the source.

Tests used:
Aβ1-42 = Aβ1-42 content in conditioned medium of primary cortico-hippocampal neuron cultures from Tg2576 mice (ELISA; primary and secondary dose-response screening); format: cell-based, mouse; conditions: for Ab1-42 (% of ctl): drug 100 μM
Summary of the method: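 This screen tested cardiovascular drugs for Aβ-lowering in Tg2576 embryonic cortico-hippocampal neuron cultures plated at 1.0×10^5 cells per well in poly-D-lysine-coated 96-well plates with Neurobasal/B27 medium. Drugs at 100 μM were added directly to the medium in duplicate, with 1% DMSO alone as the control. Conditioned medium was then collected, and its Aβ1-42 level was quantified with BioSource ELISA kits.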

Tg2576 mice [1] = experiment: Morris water maze test of spatial memory; format: in vivo, mouse
Excerpt: In the MWM assay, experimental animals are placed into a circular water tank and provided with a submerged “escape platform” at a specific location. Appropriate visual cues are located on a wall surrounding the water tank. Through repeated “learning trials”, normal animals typically learn to use the visual cues for spatial navigation and eventually require less time to swim to the platform as reflected by reducing escape latency.
Behavioral assessment of cognitive function by the Morris water maze test. […] At ˜11 months of age, mice were put into the water maze from 4 different quadrants; spatial memory was assessed by recording the average latency time for the animal to escape to the hidden platform. The behavior analysis was consistently conducted during the last 4 hours of the day portion of the light cycle in an environment with minimal stimuli (e.g., noise, movement, or changes in light or temperature).

Tg2576 mice [2] = experiment: tolerability: body weight, fluid consumption, glucose tolerance
[3] = valsartan 10 or 40 mg/kg/day in drinking water, chronic

“N-(1-oxopentyl)-N-[[2-(1H-tetrazol-5-yl) [1,1-biphenyl]-4-yl]methyl]-L-valine [Valsartan]” was tested, and the “Ab1-42 (% of ctl)” value (Aβ1-42; Primary Screening, table sorted by Aβ1-40) was 42.0 % of ctl, the “reducing Aβ1-42” value (Aβ1-42; primary screening, <85% of ctl) was “useful in reducing Aβ1-42” and the “Ab1-42 (% of ctl)” value (Aβ1-42; primary screening, Tg2576 neuron cultures, table sorted by Aβ1-42) was 42.0 % of ctl. For the same substance, the “escape latency in Morris water maze” value (Tg2576 mice [1]; Tg2576 mice, valsartan 10 and 40 mg/kg/day vs untreated) was “significant improvement in escape latency; also recorded: significantly reduced escape latency; also recorded: performed significantly better than untreated mice”, the “spatial memory performance in Morris water maze” value (Tg2576 mice [1]; WT mice, valsartan 10 or 40 mg/kg/day) was “did not significantly influence spatial memory performance; also recorded: failed to influence spatial reference memory performance” and the body weight (Tg2576 mice [2]; [3]) was “no detectable changes in body weight; also recorded: did not significantly influence animal body weight”. For the same substance, the fluid intake (Tg2576 mice [2]; [3]) was “did not significantly influence the amount of fluid intake” and the glucose-tolerance responses (Tg2576 mice [2]; valsartan 10 or 40 mg/kg/day, ~5 months) was “did not significantly influence”.
